Here are results for four compounds from ChEMBL document CHEMBL1139754, “Insect pest control agents: Novel chiral butanoate esters (juvenogens)” (Bioorg Med Chem, 2007).

For the test, the system named is Prorhinotermes. Kind of test: Juvenilizing activity against termite Prorhinotermes simplex at 0.5 mg m/L. The class given is functional.
Compound `CCCC(=O)O[C@@H]1CCCC[C@@H]1Cc1ccc(OCCNC(=O)OCC)cc1` had an Activity of 65%.

`CCCC(=O)O[C@@H]1CCCC[C@H]1Cc1ccc(OCCNC(=O)OCC)cc1` yielded an Activity of 65%.

`CCCC(=O)O[C@H]1CCCC[C@@H]1Cc1ccc(OCCNC(=O)OCC)cc1` yielded an Activity of 65%.

Take `CCCC(=O)O[C@H]1CCCC[C@H]1Cc1ccc(OCCNC(=O)OCC)cc1`: the Activity came out at 65%.
